The values below come from PubChem BioAssay AID1963984 (Molecular Pharmacology Branch, DTP, NCI, 2024).

One may read the viability, T/C as the result in the treated group divided by that in the control group, in per cent. One may read the IC50 as the point on the concentration scale where inhibition reaches its midpoint.
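Further: spheroids exposed to agents for seven days before readout.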
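Wherever viability, T/C is given: percent viability relative to DMSO vehicle control taken as 100%.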

One experiment concerns 233499-124-R-J3-PDC spheroids with HUVEC/MSC, viability. In words: Anticancer human tumor 233499-124-R-J3-PDC patient-derived colon adenocarcinoma cell line growth inhibition [PI3K]. The conditions noted are these: compound 0.316 µM; stronger effect = lower value. The source says:
Combinatorial screen of targeted agents with the PI3K inhibitors inavolisib, alpelisib, duvelisib, and copanlisib in multi-cell type tumor spheroids
A high-throughput screen of multi-cell type tumor spheroids was designed to identify active combinations of targeted small molecules and PI3K pathway inhibitors. Complex spheroids include a stromal component modeled by human endothelial cells (HUVEC) and fibroblasts modeled by human mesenchymal stem cells (MSCs). The concentration ranges selected for each drug and investigational agent were based upon clinically achievable concentrations if the clinical Cmax of the agent was known.
Compounds. The drugs and investigational agents: inavolisib (NSC800729), alpelisib (NSC765974), duvelisib (NSC772469), copanlisib (NSC816437), ipatasertib (NSC767898), afuresertib (NSC778305), talazoparib (NSC767125), sapanisertib (NSC764658), selumetinib (NSC741078), tovorafenib (DAY101, NSC766906), vemurafenib (NSC761431), ravoxertinib (NSC781343), sotorasib (NSC818433), MRTX1133 (NSC 836407), abemaciclib (NSC 768073), palbociclib (NSC758247), venetoclax (NSC 766270), SY5609 (NSC837396), enzalutamide (NSC755605), and darolutamide (NSC825331), were obtained from the National Cancer Institute (NCI) Developmental Therapeutics Program Chemical Repository. The FDA-approved anticancer drug set is available from the NCI Developmental Therapeutics Program. […] The stock solutions were prepared in dimethyl sulfoxide (DMSO, Sigma-Aldrich, St. Louis, MO, cat. D2650) at 800-fold the tested concentration and stored at -70 degrees C prior to their use. All drugs and investigational agents were tested over a range starting from a high concentration at or near the clinical Cmax and decreasing in half-log increments. If the clinical Cmax for an agent had not been determined, the highest concentration tested was 10 microM.
Cell Culture. All cells were maintained in an incubator at 37 degrees C and 5% CO2 with 95% humidity. The PDC lines were cultured according to standard operating procedures established by the NCI PDMR (https://pdmr.cancer.gov/sops/default.htm). All PDCs were thawed and cultured in Matrigel-coated flasks prepared with a working solution of 1X Ham's F-12 nutrient mix, without supplementation (Invitrogen, Waltham, MA, cat. 11765054), 100 U/mL penicillin-streptomycin (Invitrogen, cat. 15140122), and 2.5% Matrigel (Corning Inc., Corning, NY, cat. 354248) for the first three passages. The 354836-022-R-J1-PDC, 475296-252-R-J1-PDC, and 997726-040-R-J2-PDC lines were cultured in 6A media, which includes advanced DMEM/F-12 (Thermo Fisher Scientific, cat. 12634028), 10 mM HEPES (Thermo Fisher Scientific, cat. 15630080), 1X GlutaMAX supplement (Thermo Fisher Scientific, cat. 35050061), 0.1 mg/mL primocin (InvivoGen, San Diego, CA, cat. ant-pm-2), 10% defined fetal bovine serum, heat inactivated (HyClone Laboratories Inc., Logan, UT, cat. SH30070.03HI), 50% L-WRN conditioned media (ATCC, cat. CRL-3276), 1.25 mM N-Acetyl-L-cysteine (Sigma-Aldrich, cat. A9165), 10 mM nicotinamide (Sigma-Aldrich, cat. N0636), 1X B-27 supplement (Thermo Fisher Scientific, cat. 17504044), 1X N-2 supplement (Thermo Fisher Scientific, cat. 17502048), and 10 microM Y-27632 dihydrochloride (Tocris Bioscience, Bristol, United Kingdom, cat. 1254). The 624824-186-R-J2-PDC line was cultured in 6C/Colon 1B media, which includes all 6A media components plus 50 ng/mL human EGF recombinant protein (Thermo Fisher Scientific, cat. PHG0311). […]
As for `CCCS(=O)(=O)Nc1ccc(F)c(C(=O)c2c[nH]c3ncc(-c4ccc(Cl)cc4)cc23)c1F`, the viability, T/C is 97.2% [middle of 4 runs].

For the molecule `CCN1CCN(Cc2ccc(Nc3ncc(F)c(-c4cc(F)c5nc(C)n(C(C)C)c5c4)n3)nc2)CC1`, the viability, T/C was 58.9% [middle of 4 runs].

In the case of `CNC(=O)c1ccc(N2C(=S)N(c3ccc(C#N)c(C(F)(F)F)c3)C(=O)C2(C)C)cc1F`, the viability, T/C is 107% [middle of 4 runs].

Take `COc1c(OCCCN2CCOCC2)ccc2c3n(c(=NC(=O)c4cnc(N)nc4)nc12)CCN3`: the viability, T/C was 31.3% [middle of 8 runs].

With `Cn1ncc(Cl)c1-c1cc(C(=O)NC(CN)Cc2cccc(F)c2)sc1Cl` (stereo not given), the viability, T/C is 86.2% [middle of 4 runs].

The same experiment, now with this note: compound 0.949 µM; stronger effect = lower value.
Consider `Cn1cnc2c(F)c(Nc3ccc(Br)cc3Cl)c(C(=O)NOCCO)cc21`, for which the viability, T/C is 49.8% [middle of 4 runs].

Staying with this experiment, now noted: compound 1 µM; stronger effect = lower value.
Take `C#Cc1c(F)ccc2cc(O)cc(-c3ncc4c(N5CC6CCC(C5)N6)nc(OCC56CCCN5CC(F)C6)nc4c3F)c12` (stereo not given): the viability, T/C is 99.3% [middle of 4 runs].

With `C=CC(=O)N1CCN(c2nc(=O)n(-c3c(C)ccnc3C(C)C)c3nc(-c4c(O)cccc4F)c(F)cc23)C(C)C1` (stereo not given), the viability, T/C is 113% [middle of 4 runs].

Regarding `CC(C)NCC(C(=O)N1CCN(c2ncnc3c2C(C)CC3O)CC1)c1ccc(Cl)cc1` (stereo not given), the viability, T/C was 102% [middle of 4 runs].

Take `CC(Nc1ccc2c(c1)OCCn1cc(N3C(=O)OCC3C(F)F)nc1-2)C(N)=O` (stereo not given): the viability, T/C was 71.6% [middle of 8 runs].

As for `CC(Nc1ncnc2nc[nH]c12)c1cc2cccc(Cl)c2c(=O)n1-c1ccccc1` (stereo not given), the viability, T/C is 103% [middle of 8 runs].

In the case of `CC1(C)CCC(Nc2ncc(C(F)(F)F)c(-c3c[nH]c4c(P(C)(C)=O)c(C#N)ccc34)n2)CN1` (stereo not given), the viability, T/C is 26.5% [middle of 4 runs].

With `CCCS(=O)(=O)Nc1ccc(F)c(C(=O)c2c[nH]c3ncc(-c4ccc(Cl)cc4)cc23)c1F`, the viability, T/C was 100% [middle of 4 runs].

As for `CCN1CCN(Cc2ccc(Nc3ncc(F)c(-c4cc(F)c5nc(C)n(C(C)C)c5c4)n3)nc2)CC1`, the viability, T/C is 38.2% [middle of 4 runs].

For the molecule `CNC(=O)c1ccc(N2C(=S)N(c3ccc(C#N)c(C(F)(F)F)c3)C(=O)C2(C)C)cc1F`, the viability, T/C is 93.1% [middle of 4 runs].

Regarding `COc1c(OCCCN2CCOCC2)ccc2c3n(c(=NC(=O)c4cnc(N)nc4)nc12)CCN3`, the viability, T/C was 11.8% [middle of 8 runs].

For the molecule `Cn1ncc(Cl)c1-c1cc(C(=O)NC(CN)Cc2cccc(F)c2)sc1Cl` (stereo not given), the viability, T/C was 89.6% [middle of 4 runs].

The experiment is the same for the next values; noted with them: compound 3 µM; stronger effect = lower value.
Turning to `Cn1cnc2c(F)c(Nc3ccc(Br)cc3Cl)c(C(=O)NOCCO)cc21`, the viability, T/C was 30.5% [middle of 4 runs].

Staying with this experiment, now noted: compound 3.16 µM; stronger effect = lower value.
On to `C#Cc1c(F)ccc2cc(O)cc(-c3ncc4c(N5CC6CCC(C5)N6)nc(OCC56CCCN5CC(F)C6)nc4c3F)c12` (stereo not given), for which the viability, T/C is 87.5% [middle of 4 runs].

As to `C=CC(=O)N1CCN(c2nc(=O)n(-c3c(C)ccnc3C(C)C)c3nc(-c4c(O)cccc4F)c(F)cc23)C(C)C1` (stereo not given), the viability, T/C is 99.9% [middle of 4 runs].

Regarding `CC(C)NCC(C(=O)N1CCN(c2ncnc3c2C(C)CC3O)CC1)c1ccc(Cl)cc1` (stereo not given), the viability, T/C is 94.5% [middle of 4 runs].

As for `CC(Nc1ncnc2nc[nH]c12)c1cc2cccc(Cl)c2c(=O)n1-c1ccccc1` (stereo not given), the viability, T/C is 100% [middle of 8 runs].

On to `CC1(C)CCC(CN2CCN(c3ccc(C(=O)NS(=O)(=O)c4ccc(NCC5CCOCC5)c([N+](=O)[O-])c4)c(Oc4cnc5[nH]ccc5c4)c3)CC2)=C(c2ccc(Cl)cc2)C1`, for which the viability, T/C was 100% [middle of 4 runs].

With `CC1(C)CCC(Nc2ncc(C(F)(F)F)c(-c3c[nH]c4c(P(C)(C)=O)c(C#N)ccc34)n2)CN1` (stereo not given), the viability, T/C is 29.1% [middle of 4 runs].

For `CNC(=O)c1ccc(N2C(=S)N(c3ccc(C#N)c(C(F)(F)F)c3)C(=O)C2(C)C)cc1F`, the viability, T/C was 92.1% [middle of 4 runs].

Take `Cn1ncc(Cl)c1-c1cc(C(=O)NC(CN)Cc2cccc(F)c2)sc1Cl` (stereo not given): the viability, T/C was 63.6% [middle of 4 runs].

The same experiment, now with this note: compound 10 µM; stronger effect = lower value.
With `C#Cc1c(F)ccc2cc(O)cc(-c3ncc4c(N5CC6CCC(C5)N6)nc(OCC56CCCN5CC(F)C6)nc4c3F)c12` (stereo not given), the viability, T/C is 84.1% [middle of 4 runs].

Take `CC(Nc1ncnc2nc[nH]c12)c1cc2cccc(Cl)c2c(=O)n1-c1ccccc1` (stereo not given): the viability, T/C was 89.7% [middle of 8 runs].

With `CC1(C)CCC(Nc2ncc(C(F)(F)F)c(-c3c[nH]c4c(P(C)(C)=O)c(C#N)ccc34)n2)CN1` (stereo not given), the viability, T/C is 5.67% [middle of 4 runs].

In the case of `CCCS(=O)(=O)Nc1ccc(F)c(C(=O)c2c[nH]c3ncc(-c4ccc(Cl)cc4)cc23)c1F`, the viability, T/C was 2.53% [middle of 4 runs].

As for `Cn1ncc(Cl)c1-c1cc(C(=O)NC(CN)Cc2cccc(F)c2)sc1Cl` (stereo not given), the viability, T/C was 32.4% [middle of 4 runs].

As to `Cn1nccc1Nc1nccc(-c2ccn(C(CO)c3ccc(Cl)c(F)c3)c(=O)c2)n1` (stereo not given), the viability, T/C is 71.2% [middle of 4 runs].

The same experiment, now with this note: compound alone; run of 05/08/2023.
Turning to `CC(Nc1ccc2c(c1)OCCn1cc(N3C(=O)OCC3C(F)F)nc1-2)C(N)=O` (stereo not given), the IC50 is > 1 µM.

The experiment is the same for the next values; noted with them: compound alone; run of 05/09/2023.
As to `CC(Nc1ncnc2nc[nH]c12)c1cc2cccc(Cl)c2c(=O)n1-c1ccccc1` (stereo not given), the IC50 was > 10 µM.

As to `COc1c(OCCCN2CCOCC2)ccc2c3n(c(=NC(=O)c4cnc(N)nc4)nc12)CCN3`, the IC50 was 185 nM [middle of 8 runs].

The experiment is the same for the next values; noted with them: curve of compound.
Take `C#Cc1c(F)ccc2cc(O)cc(-c3ncc4c(N5CC6CCC(C5)N6)nc(OCC56CCCN5CC(F)C6)nc4c3F)c12` (stereo not given): the 50% inhibitory concentration (IC50) was > 10 µM.

For the molecule `C=CC(=O)N1CCN(c2nc(=O)n(-c3c(C)ccnc3C(C)C)c3nc(-c4c(O)cccc4F)c(F)cc23)C(C)C1` (stereo not given), the IC50 is > 10 µM.

As to `CC(=O)c1c(C)c2cnc(Nc3ccc(N4CCNCC4)cn3)nc2n(C2CCCC2)c1=O`, the IC50 is > 0.1 µM.

Regarding `CC(C)NCC(C(=O)N1CCN(c2ncnc3c2C(C)CC3O)CC1)c1ccc(Cl)cc1` (stereo not given), the IC50 is > 10 µM.

As to `CC(C)n1nc(-c2ccc3oc(N)nc3c2)c2c(N)ncnc21`, the IC50 was > 0.1 µM.

In the case of `CCCS(=O)(=O)Nc1ccc(F)c(C(=O)c2c[nH]c3ncc(-c4ccc(Cl)cc4)cc23)c1F`, the IC50 was 5.22 µM [middle of 4 runs].

For `CNC(=O)c1ccc(N2C(=S)N(c3ccc(C#N)c(C(F)(F)F)c3)C(=O)C2(C)C)cc1F`, the IC50 was > 10 µM.

In the case of `Cn1ncc(Cl)c1-c1cc(C(=O)NC(CN)Cc2cccc(F)c2)sc1Cl` (stereo not given), the half-maximal inhibitory concentration (IC50) is 4.62 µM [middle of 4 runs].

For `Cn1nccc1Nc1nccc(-c2ccn(C(CO)c3ccc(Cl)c(F)c3)c(=O)c2)n1` (stereo not given), the IC50 is > 10 µM.

With `Cn1ncnc1[C@H]1c2n[nH]c(=O)c3cc(F)cc(c23)N[C@@H]1c1ccc(F)cc1`, the concentration for half-maximal inhibition (IC50) was > 0.1 µM.
